In publication PMC11965388 (Nature Communications, 2025):

Columns and labels:
[1] = target: T1, α6β4^L121F (human α6β4 nAChR, L121F in β4) (Homo sapiens, UniProt P30926+Q15825, L142F); assay: cell-based
[2] = target: T1, α6β4^L121F (human α6β4 nAChR, L121F in β4); conditions: L121F vs WT, two-electrode voltage clamp
pain = conditions: mice; cited from earlier work
neuropathic pain = conditions: cited from earlier work
[3] = target: human α6β4 nAChR (α6β4^WT) (Homo sapiens, UniProt P30926+Q15825); assay: Two-electrode voltage clamp in Xenopus oocytes, wild-type α6β4; assay type: cell-based; conditions: times higher affinity than nicotine
human α6β4 nAChR (α6β4^WT), sequence (Q15825 31-494 limits assumed): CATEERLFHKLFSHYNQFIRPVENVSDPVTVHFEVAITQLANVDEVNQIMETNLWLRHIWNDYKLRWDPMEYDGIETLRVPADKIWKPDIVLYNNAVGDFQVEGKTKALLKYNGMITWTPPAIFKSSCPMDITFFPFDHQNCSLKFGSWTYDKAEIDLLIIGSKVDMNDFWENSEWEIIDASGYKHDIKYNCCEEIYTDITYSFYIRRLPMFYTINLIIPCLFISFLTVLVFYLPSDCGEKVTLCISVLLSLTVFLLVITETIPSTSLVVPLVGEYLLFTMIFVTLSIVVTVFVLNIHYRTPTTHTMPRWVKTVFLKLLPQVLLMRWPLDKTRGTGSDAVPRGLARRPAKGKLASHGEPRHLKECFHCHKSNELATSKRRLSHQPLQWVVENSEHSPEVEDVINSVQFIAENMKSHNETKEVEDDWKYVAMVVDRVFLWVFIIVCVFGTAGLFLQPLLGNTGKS
human α6β4 nAChR (α6β4^WT), sequence (P30926 22-498): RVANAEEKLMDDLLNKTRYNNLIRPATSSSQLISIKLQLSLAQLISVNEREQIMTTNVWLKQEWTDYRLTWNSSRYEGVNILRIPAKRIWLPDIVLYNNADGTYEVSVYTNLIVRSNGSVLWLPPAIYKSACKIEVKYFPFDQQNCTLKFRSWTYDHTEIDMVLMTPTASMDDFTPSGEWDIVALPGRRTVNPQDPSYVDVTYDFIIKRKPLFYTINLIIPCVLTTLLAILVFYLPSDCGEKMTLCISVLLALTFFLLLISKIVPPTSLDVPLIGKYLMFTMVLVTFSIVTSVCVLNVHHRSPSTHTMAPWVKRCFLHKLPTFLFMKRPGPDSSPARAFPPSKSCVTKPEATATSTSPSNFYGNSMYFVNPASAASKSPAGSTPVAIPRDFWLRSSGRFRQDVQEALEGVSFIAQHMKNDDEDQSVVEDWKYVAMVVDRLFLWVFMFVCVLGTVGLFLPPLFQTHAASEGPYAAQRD

T1 sequence (Q15825 31-494 limits assumed): as the sequence (Q15825 31-494 limits assumed) above
T1 sequence (P30926 22-498 L142F): as the sequence (P30926 22-498) above, with L121F counted along it

CN1CCC[C@H]1c1cccnc1 [nicotine]
EC50 [1]: 2200 ± 400 nM
increase of binding affinity of α6β4 for nicotine by L121F mutation in β4 [2]: approximately 10 fold
analgesic effect (pain): effective analgesics

Clc1ccc(OC[C@H]2CCN2)cn1 [tebanicline, (R)-5-(2-azetidinylmethoxy)-2-chloropyridine]
analgesic activity against neuropathic pain (neuropathic pain): potent analgesic activity
affinity for α6β4 relative to nicotine [3]: approximately 50 times
analgesic effect (pain): effective analgesics
